According to US20250188069A1, “COMPOUNDS AND METHODS FOR DEGRADING CASEIN KINASE 1 ALPHA” (PIN THERAPEUTICS, INC., priority 2022, published 2025):

Columns and labels:
CK1α = CK1α (Homo sapiens, UniProt P48729+Q96SW2); assay: CK1α HiBiT assay in CK1a_HiBiT_Jurkat cells; format: cell-based; details: DC50 class, 16 hours, Nano-Glo HiBiT Lytic Detection, read-out: CK1α degradation classification
Procedure: CK1a_HiBiT_Jurkat cells were culture in RPMI 1640 medium (Gibco, 11875093) with 10% FBS under standard tissue culture conditions. Briefly, Compounds of the present disclosure was added to 30,000 cells in a white 96-well plate (9-point dose response, top concentration […], half-log serial dilution, final DMSO concentration 0.5%) and incubated for 16 hours. CK1a level was determined in along with the Nano-Glo HiBiT Lytic Detection system [Promega N3050] with final concentration of 1 x. The luminescence was normalized to that of DMSO-treated samples. DC50 values were obtained using three-parameter non-linear regressions using Prism (GraphPad). The compounds are classified based on DC50 values as follows. • A: DC50 is less than or equal to 1×10^−7; • B: DC50 is greater than 1×10^−7 & less than or equal to 1×10^−6; • C: DC50 is greater than 1×10^−6; • NA: not calculated (no activity detected, <25% viability reduction at 1 uM)

MV-4-11 cells = assay: AML cell viability assay (RealTime-Glo); format: cell-based; details: Homo sapiens, MV4-11; IC50 class; MV-4-11 cells, RealTime-Glo after 44 hrs of treatment (TABLE 5); read-out: Cell viability classification

Sequence of CK1α (P48729 whole entry): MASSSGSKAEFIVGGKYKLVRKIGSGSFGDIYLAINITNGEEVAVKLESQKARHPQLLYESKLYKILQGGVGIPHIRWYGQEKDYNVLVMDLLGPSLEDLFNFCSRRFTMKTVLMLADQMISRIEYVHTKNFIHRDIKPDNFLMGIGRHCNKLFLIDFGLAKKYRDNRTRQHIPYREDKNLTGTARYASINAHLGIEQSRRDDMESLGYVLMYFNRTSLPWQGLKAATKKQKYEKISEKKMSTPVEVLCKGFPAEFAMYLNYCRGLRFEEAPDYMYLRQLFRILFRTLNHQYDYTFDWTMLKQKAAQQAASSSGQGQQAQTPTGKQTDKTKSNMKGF
Sequence of CK1α (Q96SW2 whole entry): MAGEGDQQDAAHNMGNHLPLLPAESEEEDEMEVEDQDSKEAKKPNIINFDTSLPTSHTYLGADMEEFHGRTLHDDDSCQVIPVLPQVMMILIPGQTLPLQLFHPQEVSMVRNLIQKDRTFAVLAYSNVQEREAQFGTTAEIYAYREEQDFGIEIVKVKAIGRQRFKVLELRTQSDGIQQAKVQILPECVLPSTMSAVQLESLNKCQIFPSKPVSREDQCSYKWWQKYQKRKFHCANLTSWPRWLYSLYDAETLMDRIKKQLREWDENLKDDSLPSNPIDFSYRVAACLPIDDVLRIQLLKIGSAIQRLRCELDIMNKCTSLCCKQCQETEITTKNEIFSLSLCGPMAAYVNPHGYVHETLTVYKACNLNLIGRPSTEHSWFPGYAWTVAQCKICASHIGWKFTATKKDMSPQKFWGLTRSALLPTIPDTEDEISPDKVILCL
Sequence of CK1α (Q16531 whole entry partner): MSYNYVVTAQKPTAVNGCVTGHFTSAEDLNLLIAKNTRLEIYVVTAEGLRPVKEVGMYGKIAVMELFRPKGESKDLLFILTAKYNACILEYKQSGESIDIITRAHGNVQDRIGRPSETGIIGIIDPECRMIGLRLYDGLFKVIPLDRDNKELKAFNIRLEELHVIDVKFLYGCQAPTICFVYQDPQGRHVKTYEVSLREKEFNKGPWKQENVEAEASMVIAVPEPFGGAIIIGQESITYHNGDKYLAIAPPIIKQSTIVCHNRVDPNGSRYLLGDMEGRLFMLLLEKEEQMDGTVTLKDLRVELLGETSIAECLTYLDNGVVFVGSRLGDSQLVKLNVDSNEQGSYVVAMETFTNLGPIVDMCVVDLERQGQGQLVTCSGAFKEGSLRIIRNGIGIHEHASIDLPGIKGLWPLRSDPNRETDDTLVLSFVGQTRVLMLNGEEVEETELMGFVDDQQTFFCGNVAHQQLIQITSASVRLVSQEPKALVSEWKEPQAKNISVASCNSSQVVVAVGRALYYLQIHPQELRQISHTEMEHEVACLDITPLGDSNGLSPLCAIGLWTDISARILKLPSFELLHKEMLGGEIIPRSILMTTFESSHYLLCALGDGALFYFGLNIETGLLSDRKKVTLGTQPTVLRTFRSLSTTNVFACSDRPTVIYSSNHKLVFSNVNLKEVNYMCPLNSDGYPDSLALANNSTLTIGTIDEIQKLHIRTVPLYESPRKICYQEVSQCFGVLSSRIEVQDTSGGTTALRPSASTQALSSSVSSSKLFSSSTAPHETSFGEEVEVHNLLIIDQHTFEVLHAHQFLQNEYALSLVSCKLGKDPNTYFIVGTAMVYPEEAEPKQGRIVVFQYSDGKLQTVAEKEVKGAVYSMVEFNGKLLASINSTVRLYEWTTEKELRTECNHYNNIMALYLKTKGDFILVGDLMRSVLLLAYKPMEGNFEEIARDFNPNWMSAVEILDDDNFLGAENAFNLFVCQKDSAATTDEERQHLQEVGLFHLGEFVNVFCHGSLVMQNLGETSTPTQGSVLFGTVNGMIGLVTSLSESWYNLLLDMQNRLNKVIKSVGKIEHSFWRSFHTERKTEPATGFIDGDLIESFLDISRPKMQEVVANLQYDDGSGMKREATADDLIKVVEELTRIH

| SMILES | DC50 (CK1α) | IC50 (MV-4-11 cells) |
| --- | --- | --- |
| CC1(C)CC(CN(c2cccc3c2CN(C2CCC(=O)NC2=O)C3=O)[C@H]2CC[C@H](NCCC(F)(F)F)CC2)C1 (single isomer, unassigned) [Compound 652A, 3-(4-{[(3,3-dimethylcyclobutyl)methyl][(1s,4s)-4-[(3,3,3-trifluoropropyl)amino]cyclohexyl]amino}-1-oxo-3H-isoindol-2-yl)piperidine-2,6-dione; bis(trifluoroacetic acid)] | > 1000 nM | > 1000 nM |
| O=C1CCC(N2Cc3c(cccc3N(CCC3CC3)[C@H]3CC[C@@H](NCCCC(F)(F)F)CC3)C2=O)C(=O)N1 (some centres unmarked) [Compound 642A] | ≤ 100 nM | > 1000 nM |
| O=C1CCC(N2Cc3c(cccc3N(CCC3CC3)[C@H]3CC[C@H](NCCC(F)F)CC3)C2=O)C(=O)N1 (some centres unmarked) [Compound 643, 3-{4-[(2-cyclopropylethyl)[(1r,4r)-4-[(3,3-difluoropropyl)amino]cyclohexyl]amino]-1-oxo-3H-isoindol-2-yl}piperidine-2,6-dione; trifluoroacetic acid] | ≤ 100 nM | < 100 nM |
| O=C1CCC(N2Cc3c(cccc3N(CCC3CC3)[C@H]3CC[C@H](NC45CC(C(F)(F)F)(C4)C5)CC3)C2=O)C(=O)N1 (some centres unmarked) [Compound 646, 3-{4-[(2-cyclopropylethyl)[(1r,4r)-4-{[3-(trifluoromethyl)bicyclo[1.1.1]pentan-1-yl]amino}cyclohexyl]amino]-1-oxo-3H-isoindol-2-yl}piperidine-2,6-dione; trifluoroacetic acid] | ≤ 100 nM | 100 to 1000 nM |
| O=C1CCC(N2Cc3c(cccc3N(CC3CC(F)(F)C3)[C@H]3CC[C@H](NCCC(F)(F)F)CC3)C2=O)C(=O)N1 (some centres unmarked) [Compound 650, 3-(4-{[(3,3-difluorocyclobutyl)methyl][(1r,4r)-4-[(3,3,3-trifluoropropyl)amino]cyclohexyl]amino}-1-oxo-3H-isoindol-2-yl)piperidine-2,6-dione] | ≤ 100 nM | 100 to 1000 nM |
| O=C1CCC(N2Cc3c(cccc3N(CC3CC4(CCC4)C3)[C@H]3CC[C@H](NCCC(F)(F)F)CC3)C2=O)C(=O)N1 (some centres unmarked) [Compound 651, 3-(1-oxo-4-{[(1r,4r)-4-[(3,3,3-trifluoropropyl)amino]cyclohexyl]({spiro[3.3]heptan-2-ylmethyl})amino}-3H-isoindol-2-yl)piperidine-2,6-dione; trifluoroacetic acid] | ≤ 100 nM | > 1000 nM |
| CC1(C)CC(CN(c2cccc3c2CN(C2CCC(=O)NC2=O)C3=O)[C@H]2CC[C@H](NCCC(F)(F)F)CC2)C1 (some centres unmarked) [Compound 652, 3-(4-{[(3,3-dimethylcyclobutyl)methyl][(1r,4r)-4-[(3,3,3-trifluoropropyl)amino]cyclohexyl]amino}-1-oxo-3H-isoindol-2-yl)piperidine-2,6-dione; bis(trifluoroacetic acid)] | ≤ 100 nM | > 1000 nM |
| O=C1CCC(N2Cc3c(cccc3N(CC3CC(F)(F)C3)[C@H]3CC[C@H](NCC4(C(F)(F)F)CC4)CC3)C2=O)C(=O)N1 (some centres unmarked) [Compound 655, 3-(4-{[(3,3-difluorocyclobutyl)methyl][(1r,4r)-4-({[1-(trifluoromethyl)cyclopropyl]methyl}amino)cyclohexyl]amino}-1-oxo-3H-isoindol-2-yl)piperidine-2,6-dione] | 100 to 1000 nM | > 1000 nM |
| O=C1CCC(N2Cc3c(cccc3N(CC3CC4(CCC4)C3)[C@H]3CC[C@H](NCC4(C(F)(F)F)CC4)CC3)C2=O)C(=O)N1 (some centres unmarked) [Compound 656, 3-(1-oxo-4-{[(1r,4r)-4-({[1-(trifluoromethyl)cyclopropyl]methyl}amino)cyclohexyl]({spiro[3.3]heptan-2-ylmethyl})amino}-3H-isoindol-2-yl)piperidine-2,6-dione; trifluoroacetic acid] | 100 to 1000 nM | 100 to 1000 nM |
| CC1(C)CC(CN(c2cccc3c2CN(C2CCC(=O)NC2=O)C3=O)[C@H]2CC[C@H](NCC3(C(F)(F)F)CC3)CC2)C1 (some centres unmarked) [Compound 657, 3-(4-{[(3,3-dimethylcyclobutyl)methyl][(1r,4r)-4-({[1-(trifluoromethyl)cyclopropyl]methyl}amino)cyclohexyl]amino}-1-oxo-3H-isoindol-2-yl)piperidine-2,6-dione; bis(trifluoroacetic acid)] | 100 to 1000 nM | > 1000 nM |
| O=C1CCC(N2Cc3c(cc(F)cc3N(CCC3CC3)[C@H]3CC[C@H](NCC4(C(F)(F)F)CC4)CC3)C2=O)C(=O)N1 (some centres unmarked) [Compound 658, 3-{4-[(2-cyclopropylethyl)[(1r,4r)-4-({[1-(trifluoromethyl)cyclopropyl]methyl}amino)cyclohexyl]amino]-6-fluoro-1-oxo-3H-isoindol-2-yl}piperidine-2,6-dione] | ≤ 100 nM | 100 to 1000 nM |

The remaining lines, values ahead:

| DC50 (CK1α) | IC50 (MV-4-11 cells) | SMILES |
| --- | --- | --- |
| 100 to 1000 nM | > 1000 nM | O=C1CCC(N2Cc3c(cc(F)cc3N(CCC3CC3)[C@H]3CC[C@@H](NCC4(C(F)(F)F)CC4)CC3)C2=O)C(=O)N1 (some centres unmarked) [Compound 658A, 3-{4-[(2-cyclopropylethyl)[(1s,4s)-4-({[1-(trifluoromethyl)cyclopropyl]methyl}amino)cyclohexyl]amino]-6-fluoro-1-oxo-3H-isoindol-2-yl}piperidine-2,6-dione] |
| ≤ 100 nM | 100 to 1000 nM | NC(=O)C12CC(N(CCC3CC3)c3cccc4c3CN(C3CCC(=O)NC3=O)C4=O)(C1)C2 (centres unmarked) [Compound 659, 3-[(2-cyclopropylethyl)[2-(2,6-dioxopiperidin-3-yl)-1-oxo-3H-isoindol-4-yl]amino]bicyclo[1.1.1]pentane-1-carboxamide] |
| ≤ 100 nM | 100 to 1000 nM | NCC12CC(N(CCC3CC3)c3cccc4c3CN(C3CCC(=O)NC3=O)C4=O)(C1)C2 (centres unmarked) [Compound 660, 3-(4-{[3-(aminomethyl)bicyclo[1.1.1]pentan-1-yl](2-cyclopropylethyl)amino}-1-oxo-3H-isoindol-2-yl)piperidine-2,6-dione] |
| ≤ 100 nM | 100 to 1000 nM | O=C1CCC(N2Cc3c(cccc3N(CCC3CC3)[C@H]3CC[C@H](NCc4ncco4)CC3)C2=O)C(=O)N1 (some centres unmarked) [Compound 662] |
| ≤ 100 nM | 100 to 1000 nM | O=C1CCC(N2Cc3c(cccc3N(CCC3CC3)[C@H]3CC[C@H](NCc4nccs4)CC3)C2=O)C(=O)N1 (some centres unmarked) [Compound 663, 3-{4-[(2-cyclopropylethyl)[(1r,4r)-4-[(1,3-thiazol-2-ylmethyl)amino]cyclohexyl]amino]-1-oxo-3H-isoindol-2-yl}piperidine-2,6-dione] |
| ≤ 100 nM | 100 to 1000 nM | O=C1CCC(N2Cc3c(cccc3N(CCC3CC3)[C@H]3CC[C@H](NCc4ccc(C(F)(F)F)cn4)CC3)C2=O)C(=O)N1 (some centres unmarked) [Compound 664, 3-{4-[(2-cyclopropylethyl)[(1r,4r)-4-({[5-(trifluoromethyl)pyridin-2-yl]methyl}amino)cyclohexyl]amino]-1-oxo-3H-isoindol-2-yl}piperidine-2,6-dione formic acid] |
| ≤ 100 nM | 100 to 1000 nM | O=C1CCC(N2Cc3c(cccc3N(CCC3CC3)[C@H]3CC[C@H](NCc4ccccn4)CC3)C2=O)C(=O)N1 (some centres unmarked) [Compound 665, 3-{4-[(2-cyclopropylethyl)[(1r,4r)-4-[(pyridin-2-ylmethyl)amino]cyclohexyl]amino]-1-oxo-3H-isoindol-2-yl}piperidine-2,6-dione; formic acid] |
| ≤ 100 nM | < 100 nM | O=C1CCC(N2Cc3c(cccc3N(CCC3CC3)[C@H]3CC[C@H](NCC4CCCO4)CC3)C2=O)C(=O)N1 (some centres unmarked) [Compound 666, 3-{4-[(2-cyclopropylethyl)[(1r,4r)-4-[(oxolan-2-ylmethyl)amino]cyclohexyl]amino]-1-oxo-3H-isoindol-2-yl}piperidine-2,6-dione] |
| ≤ 100 nM | < 100 nM | CN(C)[C@H]1CC[C@H](N(CCC2CC2)c2cccc3c2CN(C2CCC(=O)NC2=O)C3=O)CC1 (some centres unmarked) [Compound 668, 3-{4-[(2-cyclopropylethyl)[(1r,4r)-4-(dimethylamino)cyclohexyl]amino]-1-oxo-3H-isoindol-2-yl}piperidine-2,6-dione] |
| ≤ 100 nM | 100 to 1000 nM | O=C1CCC(N2Cc3c(cccc3N(CCC3CC3)[C@H]3CC[C@H](N4CCCC4)CC3)C2=O)C(=O)N1 (some centres unmarked) [Compound 669] |
| ≤ 100 nM | 100 to 1000 nM | O=C1CCC(N2Cc3c(cccc3N(CCC3CC3)[C@H]3CC[C@H](N4CCC(F)(F)C4)CC3)C2=O)C(=O)N1 (some centres unmarked) [Compound 670] |
| ≤ 100 nM | 100 to 1000 nM | O=C1CCC(N2Cc3c(cccc3N(CCC3CC3)[C@H]3CC[C@H](N4CCC(F)C4)CC3)C2=O)C(=O)N1 (some centres unmarked) [Compound 671, 3-{4-[(2-cyclopropylethyl)[(1r,4r)-4-(3-fluoropyrrolidin-1-yl)cyclohexyl]amino]-1-oxo-3H-isoindol-2-yl}piperidine-2,6-dione] |
| ≤ 100 nM | 100 to 1000 nM | O=C1CCC(N2Cc3c(cccc3N(CCC3CC3)[C@H]3CC[C@H](N4CCC(C(F)(F)F)C4)CC3)C2=O)C(=O)N1 (some centres unmarked) [Compound 672, 3-{4-[(2-cyclopropylethyl)[(1r,4r)-4-[3-(trifluoromethyl)pyrrolidin-1-yl]cyclohexyl]amino]-1-oxo-3H-isoindol-2-yl}piperidine-2,6-dione; trifluoroacetic acid] |
| ≤ 100 nM | > 1000 nM | O=C1CCC(N2Cc3c(cccc3N(CCC3CC3)[C@H]3CC[C@H](N4CC(C(F)(F)F)C4)CC3)C2=O)C(=O)N1 (some centres unmarked) [Compound 673] |
